Assay results reported in the NIST ThermoML archive (doi:10.1016/j.jct.2013.01.008).

Experiment: mn = molality of the nth substance listed, in mol/kg
Settings: 101 kPa, Liquid; for mass density: Pycnometric method; for viscosity: Capillary tube (Ostwald / Ubbelohde) method

C[C@@H](O)[C@H](N)C(=O)O [L-threonine] + O
Settings	mass density [kg/m3]	viscosity [mPa·s]
293.15 K, m1 = 0.025	999.31	–
293.15 K, m1 = 0.05	1000.36	–
293.15 K, m1 = 0.075	1001.39	–
293.15 K, m1 = 0.0999	1002.41	–
293.15 K, m1 = 0.1249	1003.41	–
293.15 K, m1 = 0.15	1004.39	–
293.15 K, m1 = 0.175	1005.36	–
293.15 K, m1 = 0.2	1006.31	–
298.15 K, m1 = 0.025	998.14	0.8981
298.15 K, m1 = 0.05	999.18	0.9057
298.15 K, m1 = 0.075	1000.22	0.9134
298.15 K, m1 = 0.0999	1001.23	0.9211
298.15 K, m1 = 0.1249	1002.23	0.9286
298.15 K, m1 = 0.15	1003.21	0.936
298.15 K, m1 = 0.175	1004.18	0.9434
298.15 K, m1 = 0.2	1005.12	0.9511
303.15 K, m1 = 0.025	996.75	0.8051
303.15 K, m1 = 0.05	997.8	0.8128
303.15 K, m1 = 0.075	998.83	0.8205
303.15 K, m1 = 0.0999	999.84	0.828
303.15 K, m1 = 0.1249	1000.83	0.8358
303.15 K, m1 = 0.15	1001.83	0.8434
303.15 K, m1 = 0.175	1002.79	0.851
303.15 K, m1 = 0.2	1003.74	0.8584
308.15 K, m1 = 0.025	995.14	0.7266
308.15 K, m1 = 0.05	996.19	0.7344
308.15 K, m1 = 0.075	997.23	0.7421
308.15 K, m1 = 0.0999	998.24	0.7496
308.15 K, m1 = 0.1249	999.24	0.7571
308.15 K, m1 = 0.15	1000.23	0.7645
308.15 K, m1 = 0.175	1001.2	0.7719
308.15 K, m1 = 0.2	1002.15	0.7792
313.15 K, m1 = 0.025	993.32	0.66
313.15 K, m1 = 0.05	994.38	0.6678
313.15 K, m1 = 0.075	995.42	0.6754
313.15 K, m1 = 0.0999	996.44	0.6828
313.15 K, m1 = 0.1249	997.44	0.6901
313.15 K, m1 = 0.15	998.43	0.6974
313.15 K, m1 = 0.175	999.4	0.7047
313.15 K, m1 = 0.2	1000.35	0.7119
318.15 K, m1 = 0.025	991.32	0.6044
318.15 K, m1 = 0.05	992.38	0.6121
318.15 K, m1 = 0.075	993.42	0.6196
318.15 K, m1 = 0.0999	994.45	0.6269
318.15 K, m1 = 0.1249	995.46	0.6341
318.15 K, m1 = 0.15	996.45	0.6413
318.15 K, m1 = 0.175	997.43	0.6485
318.15 K, m1 = 0.2	998.39	0.6556
